From paper PMC4830539, “Chemical Inhibition of Histone Deacetylases 1 and 2 Induces Fetal Hemoglobin through Activation of GATA2” (PLoS ONE, 2016)
Read-outs that look alike come from different tables or passages of the source.

Legend:
HDAC1 = HDAC1 (Homo sapiens, UniProt Q13547); assay: In vitro biochemical HDAC enzyme assay; conditions: 24 hours pre-incubation; mean, n = 4
Procedure: (§1) In vitro biochemical assays were performed as described previously. Specifically, drugs were dissolved and diluted in assay buffer (50 mM HEPES, pH 7.4, 100 mM KCl, 0.001% Tween-20, 0.05% BSA, and 20 μM Tris (2-carboxyethyl)phosphine) to 6-fold the final concentration. HDAC enzymes (BPS Biosciences) were diluted to 1.5-fold of the final concentration in assay buffer and pre-incubated with ACY-957 for 24 hours before the addition of the substrate. The amount of substrate (acetyl-lysine tripeptide substrate for HDAC1, HDAC2, HDAC3, and HDAC6 or trifluoroacetyl-lysine tripeptide for HDAC4, HDAC5, HDAC7, HDAC8, and HDAC9) used for each enzyme was equal to the Michaelis constant (Km), as determined by a titration curve. Substrate was diluted in assay buffer to 6-fold the final concentration with 0.3 μM sequencing grade trypsin (Sigma-Aldrich). The substrate/trypsin mix was added to the enzyme/compound mix and the plate was shaken for 5 seconds and then placed into a SpectraMax M5 microtiter plate reader (Molecular Devices). The enzymatic reaction was monitored over 30 minutes for release of […] after deacetylation of the lysine side chain in the peptide substrate, and the linear rate of the reaction was calculated.
(§2) ACY-957 was tested against each individual HDAC in an in vitro biochemical assay as previously described. Aminobenzamides have slow association rate constants, therefore a prolonged pre-incubation time of 24 hours is required to reach equilibrium.

HDAC4 = system: T1, HDAC4; assay: In vitro biochemical HDAC enzyme assay; conditions: at concentrations as high as 20 μM
T1 construct: purchased BPS Biosciences
Procedure: as §1, §2

HDAC5 = system: T2, HDAC5; assay: In vitro biochemical HDAC enzyme assay; conditions: at concentrations as high as 20 μM
T2 construct: purchased BPS Biosciences
Procedure: as §1, §2

HDAC7 = system: T3, HDAC7; assay: In vitro biochemical HDAC enzyme assay; conditions: at concentrations as high as 20 μM
T3 construct: purchased BPS Biosciences
Procedure: as §1, §2

HDAC3 = HDAC3 (Homo sapiens, UniProt O15379); assay: In vitro biochemical HDAC enzyme assay
Procedure: as §1, §2

HDAC6 = system: T4, HDAC6; assay: In vitro biochemical HDAC enzyme assay; conditions: at concentrations as high as 20 μM
T4 construct: purchased BPS Biosciences
Procedure: as §1, §2

HDAC9 = system: T5, HDAC9; assay: In vitro biochemical HDAC enzyme assay; conditions: at concentrations as high as 20 μM
T5 construct: purchased BPS Biosciences
Procedure: as §1, §2

HDAC8 = system: T6, HDAC8; assay: In vitro biochemical HDAC enzyme assay; conditions: at concentrations as high as 20 μM
T6 construct: purchased BPS Biosciences
Procedure: as §1, §2

[1] = set-up: method as in earlier work; conditions: mouse; cited from earlier work
[2] = system: erythroid differentiation of BM cells; assay: Erythroid maturation stage by flow cytometry (TFRC and GYPA); format: cell-based, human; conditions: for cells in TFRC/GYPA gate (gate not named): Fig 5A
Procedure: (§3) Flow cytometry was performed on a FC500 flow cytometer ([…]). Fetal hemoglobin protein was assayed using the Fetal Hemoglobin Test Kit (Life Technologies) according to manufacturer’s protocol. Samples were stained with FITC-conjugated mouse IgG1 anti-human HbF antibody (clone HbF-1, Life Technologies). Each sample was also stained with a FITC-conjugated mouse IgG1 isotype control antibody (clone X40, BD Biosciences) and used as a negative control. FETALtrol cells were used as positive controls (Trillium Diagnostics). TFRC and GYPA were detected on fresh cells by staining with 20 μL of PE-conjugated anti-human TFRC (clone M-A712, catalog 555537, BD Biosciences) and 0.5 μL of FITC- or APC-conjugated anti-human GYPA (clone GA-R2 (HIR2), catalog 559943 or 551336, BD Biosciences) in 200 μL PBS with 0.1% BSA for 40 min on ice. Forward and side scatter, or staining with 7AAD (catalog 559925, BD Biosciences), was used to identify viable cells.
To investigate the effects of HDAC1/2 inhibition on erythroid maturation, we followed differentiation by flow cytometry using TFRC and GYPA [38]. BM cells were cultured in CS1 expansion media for 7 days, yielding a pool of TFRC^negGYPA^neg cells composed of primitive and more differentiated hematopoietic progenitors of multiple lineages (Fig 4, ‘day 0’). These cells were then shifted to CS1 differentiation media containing either 1 μM of ACY-957 or vehicle control. […] The majority of vehicle control cells continued to differentiate over the next 3 days, becoming TFRC^posGYPA^pos by day 8. […] TFRC^posGYPA^mid cells are equivalent to proerythroblasts, while TFRC^posGYPA^pos cells include the more differentiated basophilic and polychromatic erythroblasts. Therefore, HDAC1/2 inhibition using 1 μM of ACY-957 was able to inhibit differentiation of proerythroblasts to basophilic erythroblasts in the liquid culture systems utilized in this study.

HDAC2 = HDAC2 (Homo sapiens, UniProt Q92769); assay: In vitro biochemical HDAC enzyme assay; set-up: purchased BPS Biosciences; conditions: 24 hours pre-incubation; mean, n = 4
Procedure: as §1
ACY-957 was tested against each individual HDAC in an in vitro biochemical assay as previously described. […]

[3] = set-up: method as in earlier work; conditions: monkey; cited from earlier work
HbF protein = HbF protein by flow cytometry in BM cells (CS1, CS2); format: cell-based, human; conditions: for HbF positive cells / MFI of HbF positive cells: 1 μM ACY-957 or 30 μM hydroxyurea
Procedure: CD34+ cells isolated from human bone marrow of healthy normal donors (Lonza, AllCells, or StemCell Technologies), referred to as BM cells throughout this work, were cultured using two distinct 2-phase culture systems. These systems have been described previously and are referred to as Culture System 1 (CS1) and Culture System 2 (CS2) throughout this work. CS1 expansion media is StemSpan SFEM (StemCell Technologies) supplemented with CC100 (StemCell Technologies), 100 U/mL penicillin and 100 μg/mL streptomycin. CC100 is a mix of Flt-3 ligand (FLT3LG), KIT ligand (KITLG), interleukin-3 (IL3), and interleukin-6 (IL6). CS1 differentiation media is StemSpan SFEM supplemented with 1 U/ml erythropoietin (EPO), 5 ng/mL IL3, 20 ng/mL KITLG, 2 μM dexamethasone, 1 μM beta-estradiol, 100 U/mL penicillin and 100 μg/mL streptomycin. CS2 expansion media is StemSpan SFEM supplemented with 1% glutamine, 40 μg/mL lipids (Sigma), 100 ng/mL KITLG, 10 ng/mL IL3, and 0.5 U/mL EPO. CS2 differentiation media is same as CS2 expansion media, except 3 U/mL EPO.
as §3
To determine if the HBG mRNA induction observed in the presence of ACY-957 was associated with an increase in the HbF protein, CS1 and CS2 cells at day 5 were stained with a fluorescently conjugated anti-HbF antibody and evaluated by flow cytometry. HbF positive cells were increased by 2 to 3-fold upon treatment with ACY-957, which exceeded the response observed with hydroxyurea (Fig 2B and 2E).

[4] = CS1 differentiation media, 1 μM

HDAC3, sequence (O15379 whole entry): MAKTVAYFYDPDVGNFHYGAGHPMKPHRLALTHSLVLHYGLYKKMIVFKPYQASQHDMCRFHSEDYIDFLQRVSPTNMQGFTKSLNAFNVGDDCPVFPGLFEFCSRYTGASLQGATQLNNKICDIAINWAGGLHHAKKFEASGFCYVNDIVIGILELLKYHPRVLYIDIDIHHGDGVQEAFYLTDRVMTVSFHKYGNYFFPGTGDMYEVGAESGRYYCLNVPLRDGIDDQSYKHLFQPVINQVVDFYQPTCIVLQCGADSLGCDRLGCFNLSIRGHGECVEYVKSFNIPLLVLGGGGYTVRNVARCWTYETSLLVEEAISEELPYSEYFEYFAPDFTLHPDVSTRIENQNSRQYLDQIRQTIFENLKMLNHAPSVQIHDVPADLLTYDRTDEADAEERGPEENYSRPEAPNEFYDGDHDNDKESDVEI
HDAC3, sequence (Q9Y618 395-489 partner limits assumed): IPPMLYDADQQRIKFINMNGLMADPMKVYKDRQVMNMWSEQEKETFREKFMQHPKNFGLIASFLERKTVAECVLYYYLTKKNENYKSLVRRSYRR
HDAC1, sequence (Q13547 whole entry): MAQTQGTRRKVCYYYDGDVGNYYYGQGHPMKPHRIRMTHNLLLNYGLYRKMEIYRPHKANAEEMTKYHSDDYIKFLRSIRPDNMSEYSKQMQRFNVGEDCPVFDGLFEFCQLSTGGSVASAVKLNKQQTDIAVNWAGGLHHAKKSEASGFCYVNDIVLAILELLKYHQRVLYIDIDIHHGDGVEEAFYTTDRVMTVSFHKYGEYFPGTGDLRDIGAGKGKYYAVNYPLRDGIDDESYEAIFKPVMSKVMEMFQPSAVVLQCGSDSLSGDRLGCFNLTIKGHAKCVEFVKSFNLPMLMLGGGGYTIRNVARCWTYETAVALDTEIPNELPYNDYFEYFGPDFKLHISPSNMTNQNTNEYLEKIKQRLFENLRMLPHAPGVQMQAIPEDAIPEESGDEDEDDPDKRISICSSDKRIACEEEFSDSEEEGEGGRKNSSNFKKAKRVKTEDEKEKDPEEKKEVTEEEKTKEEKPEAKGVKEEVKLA
HDAC2, sequence (Q92769 whole entry): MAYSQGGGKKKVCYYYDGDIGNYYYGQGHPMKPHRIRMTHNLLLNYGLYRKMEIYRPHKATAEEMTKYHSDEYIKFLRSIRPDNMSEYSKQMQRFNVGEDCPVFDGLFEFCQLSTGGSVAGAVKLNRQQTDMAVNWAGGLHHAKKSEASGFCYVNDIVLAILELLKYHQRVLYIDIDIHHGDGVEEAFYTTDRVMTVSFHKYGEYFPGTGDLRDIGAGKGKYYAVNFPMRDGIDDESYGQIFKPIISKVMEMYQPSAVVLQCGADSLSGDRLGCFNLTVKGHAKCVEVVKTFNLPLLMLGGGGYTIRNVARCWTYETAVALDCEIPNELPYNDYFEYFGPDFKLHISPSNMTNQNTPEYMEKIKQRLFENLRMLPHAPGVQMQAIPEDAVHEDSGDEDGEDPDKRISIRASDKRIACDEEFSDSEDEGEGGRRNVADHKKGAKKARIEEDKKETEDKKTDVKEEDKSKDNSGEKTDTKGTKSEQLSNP

Compound: Nc1ccc(-c2cccs2)cc1NC(=O)c1ccc2nc(N3CCNCC3)ccc2c1 [ACY-957]
- IC50 (HDAC1): 7 nM
- inhibition of HDAC4 (HDAC4): no inhibition
- inhibition of HDAC5 (HDAC5): no inhibition
- inhibition of HDAC7 (HDAC7): no inhibition
- IC50 (HDAC3; 24 hours pre-incubation, mean, n = 4): 1300 nM
- selectivity for HDAC1/2 over HDAC3 (HDAC3; biochemical assay): approximately 100 fold
- inhibition of HDAC6 (HDAC6): no inhibition
- inhibition of HDAC9 (HDAC9): no inhibition
- inhibition of HDAC8 (HDAC8): no inhibition
- pharmacokinetic properties [1]: favorable
- erythroid differentiation by day 8 [2, 4]: accumulated at the TFRC^posGYPA^mid stage
- erythroid differentiation during the first 5 days [2, 4]: differentiated to the same extent as vehicle treated cells
- cells in TFRC/GYPA gate (gate not named) ([2]; Donor 1, CS1, day 5, 1 μM, first gate listed): 61%
- cells in TFRC/GYPA gate (gate not named) ([2]; Donor 1, CS1, day 5, 1 μM, second gate listed): 30%
- cells in TFRC/GYPA gate (gate not named) ([2]; Donor 2, CS1, day 5, 1 μM, first gate listed): 62%
- cells in TFRC/GYPA gate (gate not named) ([2]; Donor 2, CS1, day 5, 1 μM, second gate listed): 37%
- cells in TFRC/GYPA gate (gate not named) ([2]; Donor 3, CS1, day 5, 1 μM, first gate listed): 65%
- cells in TFRC/GYPA gate (gate not named) ([2]; Donor 3, CS1, day 5, 1 μM, second gate listed): 32%
- IC50 (HDAC2): 18 nM
- pharmacokinetic properties [3]: favorable
- HbF positive cells (HbF protein; CS1, day 5): 36%
- MFI of HbF positive cells (HbF protein; CS1, day 5): 36
- increase of HbF positive cells (HbF protein; CS1 and CS2, day 5, 1 μM): 2 to 3 fold
- increase of mean fluorescent intensity (MFI) of HbF positive cells (HbF protein; CS1 and CS2, day 5, 1 μM): up to 2 fold
- HbF positive cells (HbF protein; CS2, day 5): 50%
- MFI of HbF positive cells (HbF protein; CS2, day 5): 20
